Measured values reported in US20230159453A1 (COCRYSTAL PHARMA, INC., priority 2020, published 2023).

Molecular target: SARS2 protease (Severe acute respiratory syndrome coronavirus 2, UniProt P0DTD1)
Test: SARS-CoV-2 protease inhibition assay (SARS2 FRET protease assay)
Type: biochemical
Conditions: SARS-CoV-2 protease 25 nM, FRET, peptide substrate 1.3 μM, 30 minutes at 30° C., compounds 20 μM to 1.0 nM; read-out: IC50

| Structure (SMILES) | IC50 |
| --- | --- |
| CCNC(=O)C(=O)[C@H](C[C@@H]1CCNC1=O)NC(=O)[C@H](CC1CCCCC1)NC(=O)OC(c1ccccc1)C(C)(C)c1cccc(Cl)c1 (stereo partly drawn) [Compound C211, 2-(3-Chlorophenyl)-2-methyl-1-phenylpropyl ((S)-3-cyclohexyl-1-(((S)-4-(ethylamino)-3,4-dioxo-1-((S)-2-oxopyrrolidin-3-yl)butan-2-yl)amino)-1-oxopropan-2-yl) carbamate] | 339 nM |
| CC(C)(c1cccc(Cl)c1)C(OC(=O)N[C@@H](CC1CCCCC1)C(=O)N[C@@H](C[C@@H]1CCNC1=O)C(=O)C(=O)NC1CC1)c1ccccc1Cl (stereo partly drawn) [Compound C186, 1-(2-Chlorophenyl)-2-(3-chlorophenyl)-2-methylpropyl ((S)-3-cyclohexyl-1-(((S)-4-(cyclopropylamino)-3,4-dioxo-1-((S)-2-oxopyrrolidin-3-yl)butan-2-yl)amino)-1-oxopropan-2-yl) carbamate] | 1240 nM |
| CC(C)(c1cccc(Cl)c1)C(OC(=O)N[C@@H](CC1CCCCC1)C(=O)N[C@@H](C[C@@H]1CCNC1=O)C(=O)CO)c1ccccc1 (stereo partly drawn) [Compound C273] | 5350 nM |
| O=C(N[C@@H](CC1CCCCC1)C(=O)N[C@@H](CC1CC2(CCCCC2)NC1=O)C(=O)CCl)OCc1cccc(Cl)c1 (stereo partly drawn) [Compound C197, 3-Chlorobenzyl ((2S)-1-(((2S)-4-chloro-3-oxo-1-(2-oxo-1-azaspiro[4.5]decan-3-yl)butan-2-yl)amino)-3-cyclohexyl-1-oxopropan-2-yl)carbamate] | 620 nM |
| CC(C)C[C@H](NC(=O)OC(Cc1cccc(Cl)c1)c1ccccc1)C(=O)N[C@@H](C[C@@H]1CCNC1=O)C(=O)C(=O)N1CCCCC1 (stereo partly drawn) [Compound C243, 2-(3-Chlorophenyl)-1-phenylethyl ((S)-1-(((S)-3,4-dioxo-1-((S)-2-oxopyrrolidin-3-yl)-4-(piperidin-1-yl)butan-2-yl)amino)-4-methyl-1-oxopentan-2-yl) carbamate] | > 20000 nM |
| CC1(C)CC(CC(C=O)NC(=O)[C@H](CC2CCCCC2)NC(=O)OC(Cc2cccc(Cl)c2)c2ccccc2)C(=O)N1 (stereo partly drawn) [Compound C180, 2-(3-Chlorophenyl)-1-phenylethyl ((2S)-3-cyclohexyl-1-((1-(5,5-dimethyl-2-oxopyrrolidin-3-yl)-3-oxopropan-2-yl)amino)-1-oxopropan-2-yl) carbamate] | 56.6 nM |
| CC(=O)N1CCC2(CC1)CC(CC(C=O)NC(=O)[C@H](CC(C)C)NC(=O)c1cc3ccccc3[nH]1)C(=O)N2 (stereo partly drawn) [Compound C74, N-((2S)-1-((1-(8-acetyl-2-oxo-1,8-diazaspiro[4.5]decan-3-yl)-3-oxopropan-2-yl)amino)-4-methyl-1-oxopentan-2-yl)-1H-indole-2-carboxamide] | 140 nM |
| CC(C)C[C@H](NC(=O)OC1(Cc2cccc(Cl)c2)CCC1)C(=O)N[C@@H](CC1CC2(CCOCC2)NC1=O)C(=O)C(=O)NC1CC1 (stereo partly drawn) [Compound C169, 1-(3-chlorobenzyl)cyclobutyl ((2S)-1-((4-(cyclopropylamino)-3,4-dioxo-1-(2-oxo-8-oxa-1-azaspiro[4.5]decan-3-yl)butan-2-yl)amino)-4-methyl-1-oxopentan-2-yl)carbamate] | 5990 nM |
| CCCC[C@H](NC(=O)OC(c1ccccc1)C(C)(C)c1cccc(Cl)c1)C(=O)N[C@@H](CC1CCNC1=O)C(=O)C(=O)NC1CC1 (stereo partly drawn) [Compound C174, 2-(3-Chlorophenyl)-2-methyl-1-phenylpropyl ((S)-1-(((S)-4-(cyclopropylamino)-3,4-dioxo-1-((S)-2-oxopyrrolidin-3-yl)butan-2-yl)amino)-1-oxohexan-2-yl) carbamate] | 8.2 nM |
| CCOP(=O)(OCC)C(O)[C@H](CCC(=O)N1CCOc2ccccc2C1)NC(=O)[C@H](CC1CCCCC1)NC(=O)N(C)Cc1cccc(Cl)c1 (stereo partly drawn) [Compound C31, Diethyl ((2S)-2-((S)-2-(3-(3-chlorobenzyl)-3-methylureido)-3-cyclohexylpropanamido)-5-(2,3-dihydrobenzo[f][1,4]oxazepin-4(5H)-yl)-1-hydroxy-5-oxopentyl)phosphonate] | > 200000 nM |
| CCCCCCCOC(=O)N[C@@H](CC1CCCCC1)C(=O)N[C@@H](CCC(=O)N1CCOc2ccccc2C1)C(O)P(=O)(OCC)OCC (stereo partly drawn) [Compound C14, Heptyl ((2S)-3-cyclohexyl-1-(((2S)-1-(diethoxyphosphoryl)-5-(2,3-dihydrobenzo[f][1,4]oxazepin-4(5H)-yl)-1-hydroxy-5-oxopentan-2-yl)amino)-1-oxopropan-2-yl)carbamate] | > 200000 nM |
| CC(C)C[C@H](NC(=O)OC1CCN(C(=O)OC(C)(C)C)c2ccccc21)C(=O)N[C@@H](C[C@@H]1CCNC1=O)C(O)S(=O)(=O)O (stereo partly drawn) [Compound C58, (2S)-2-((2S)-2-((((1-(tert-butoxycarbonyl)-1,2,3,4-tetrahydroquinolin-4-yl)oxy)carbonyl)amino)-4-methylpentanamido)-1-hydroxy-3-((S)-2-oxopyrrolidin-3-yl) propane-1-sulfonate] | 100 nM |
| CC(C)C[C@H](NC(=O)OC1CCN(C(=O)OC(C)(C)C)CC1)C(=O)N[C@H](C=O)C[C@@H]1CCNC1=O [Compound C34, Tert-butyl 4-((((S)-4-methyl-1-oxo-1-(((S)-1-oxo-3-((S)-2-oxopyrrolidin-3-yl)propan-2-yl)amino)pentan-2-yl)carbamoyl)oxy) piperidine-1-carboxylate] | 100 nM |
| CC(C)C[C@H](NC(=O)OC1CCN(C(=O)OC(C)(C)C)c2ccccc21)C(=O)N[C@@H](C[C@@H]1CCNC1=O)C(=O)C(=O)NCc1ccccn1 (stereo partly drawn) [Compound C86, Tert-butyl 4-((((S)-1-(((S)-3,4-dioxo-1-((S)-2-oxopyrrolidin-3-yl)-4-((pyridin-2-ylmethyl)amino)butan-2-yl)amino)-4-methyl-1-oxopentan-2-yl)carbamoyl)oxy)-3,4-dihydroquinoline-1(2H)-carboxylate] | 900 nM |
| COc1cccc2[nH]c(C(=O)N[C@@H](CC(C)C)C(=O)NC(CC3CC4(CCCCC4)NC3=O)C(=O)CO)cc12 (stereo partly drawn) [Compound C233, N-((2S)-1-((4-hydroxy-3-oxo-1-(2-oxo-1-azaspiro[4.5]decan-3-yl)butan-2-yl)amino)-4-methyl-1-oxopentan-2-yl)-4-methoxy-1H-indole-2-carboxamide] | 20 nM |
| Cc1cccc(C(OC(=O)N[C@@H](CC2CCCCC2)C(=O)N[C@@H](C[C@@H]2CCNC2=O)C(=O)C(N)=O)C(C)(C)c2cccc(Cl)c2)c1 (stereo partly drawn) [Compound C124, 2-(3-chlorophenyl)-2-methyl-1-(m-tolyl)propyl ((S)-1-(((S)-4-amino-3,4-dioxo-1-((S)-2-oxopyrrolidin-3-yl)butan-2-yl)amino)-3-cyclohexyl-1-oxopropan-2-yl) carbamate] | 324 nM |
| CC(C)C[C@H](NC(=O)OC(c1ccccc1)C(C)(C)c1cccc(Cl)c1)C(=O)N[C@@H](C[C@@H]1CCNC1=O)C(=O)CO (stereo partly drawn) [Compound C236, 2-(3-Chlorophenyl)-2-methyl-1-phenylpropyl ((S)-1-(((S)-4-hydroxy-3-oxo-1-((S)-2-oxopyrrolidin-3-yl)butan-2-yl)amino)-4-methyl-1-oxopentan-2-yl)carbamate] | 271 nM |
| CC(C)C[C@H](NC(=O)OC(C)Cc1ccccc1)C(=O)N[C@H](C=O)C[C@@H]1CCNC1=O (stereo partly drawn) [Compound C39, 1-Phenylpropan-2-yl ((S)-4-methyl-1-oxo-1-(((S)-1-oxo-3-((S)-2-oxopyrrolidin-3-yl)propan-2-yl)amino)pentan-2-yl)carbamate] | 153 nM |
